The text below walks through data of US20120251643A1, “ANTI-DIABETIC EXTRACT OF HONEYBUSH” (Zadec ApS, priority 2007, published 2012).

The test system of assay [1] is diabetic rats (T1D and T2D). Nature of the assay: Flavonoids and extract administered to diabetic rats. The format is in vivo. The settings on record: for results in diabetic rats compared with the extract: extracted and fractionated from Cyclopia. Here is the method: The flavonoids specifically used were mangiferin and hesperidin.
Experiments with diabetic test animals (rats) were carried out.

A short description of assay [2]: Bioassay of purified fractions for anti-diabetic activity. The text has this:
The partially purified active extract may be dissolved in methanol, and may be further fractionated by column chromatography, employing silica gel as an adsorption medium and a chloroform/30% methanol mixture as an eluent. A plurality of different fractions may be obtained, and each may be evaluated, by suitable bioassaying procedures, to determine the anti-diabetic activity thereof.
A fraction having anti-diabetic activity may preferably be further fractionated such as by column chromatography using silica gel as an adsorption medium and a 9:1 chloroform:methanol solvent, and the resultant sub-fractions bioassayed for their anti-diabetic activity. A sub-fraction displaying anti-diabetic activity may, if desired, be further fractionated and purified, conveniently using a column chromatographic procedure with silica gel as the adsorption medium and a 9:1 ethylacetate:hexane solvent. The resultant purified fractions may again be evaluated by suitable bioassay procedures for their anti-diabetic activity.

As for `COc1ccc([C@@H]2CC(=O)c3c(O)cc(O[C@@H]4O[C@H](CO[C@@H]5O[C@@H](C)[C@H](O)[C@@H](O)[C@H]5O)[C@@H](O)[C@H](O)[C@H]4O)cc3O2)cc1O` [hesperidin, 7-[[6-O-(6-deoxy-α-L-mannopyranosyl)-β-D-glucopyranosyl]oxy]-2,3-dihydro-5-hydroxy-2-(3-hydroxy-4-methoxyphenyl)-4H-1-benzopyran-4-on], in assay [1], the “results in diabetic rats compared with the extract” value is given as “results similar to those produced by the extract”.

As for `O=c1c2cc(O)c(O)cc2oc2cc(O)c([C@@H]3O[C@H](CO)[C@@H](O)[C@H](O)[C@H]3O)c(O)c12` [mangiferin], in assay [2], the “anti-diabetic activity of purified fraction” value is “superior anti-diabetic activity”. The “lowering of blood sugar and diabetic symptoms” value in assay [1] (both T1D and T2D rats) was “effective in lowering the blood sugar and generally alleviating diabetic symptoms”. Also, the “results in diabetic rats compared with the extract” value in assay [1] was “results similar to those produced by the extract”.
